Assay [1] deals with p-ERK in NCI-H441 cells (KRAS G12V mutation). The experiment in a line: Cell p-ERK assay (HTRF) in NCI-H441 cells. In kind it is cell-based, human. The settings on record: Homo sapiens, NCI-H441, 3 h, NCI-H441 cells, 3 h compound incubation, HTRF p-ERK T202/Y204; read-out: H441 p-ERK IC50. As for the experimental part:
AsPC-1 cells were purchased from ATCC, Cat. No. CRL-1682: NCI-H441 cells were purchased from ATCC, Cat. No. HTB-174: RPMI-1640 medium was purchased from Gibco, Cat. No. I1875-093: FBS was purchased from Gibco, Cat. No. 10099-141C: penicillin/streptomycin double-antibiotic solution (PS) was purchased from Gibco, Cat. No. 15140-122: trypsin (containing EDTA) was purchased from Gibco, Cat. No. 25200-072; DMSO was purchased from VWRAMRESCO, Cat. No. 0231-500ML; 96-well cell culture plates were purchased from Corning, Cat. No. 3599: white-bottomed, opaque 96-well plates were purchased from Cisbio, Cat. No. 66PL96025; Advance ERK phospho-T202/Y204 kit was purchased from Cisbio, Cat. No. 64AERPEH; cell counter was purchased from CHEMOMETEC, model: NC-200; microplate reader was purchased from PerkinElmer, model: EnVision.
AsPC-1, a human pancreatic cancer cell strain endogenously containing a KRAS^G12D mutation, was cultured in a complete medium containing RPMI-1640+10% FBS+1% PS. NCI-H441, a human non-small cell lung cancer cell strain endogenously containing a KRAS^G12V mutation, was cultured in a complete medium containing RPMI-1640+10% FBS+1% PS.
The cells were digested with trypsin (containing EDTA), collected in their corresponding complete media, and counted. The density of the cell suspensions was adjusted with their corresponding complete media, and 10000 AsPC-1 cells or 20000 NCI-H441 cells per well were seeded into a 96-well cell culture plate, with the volume of the medium in each well being 80 μL.
The cell culture plate was incubated in an incubator at 37° C. with 5% CO2 overnight. A series of 3.16-fold gradient dilutions of a 1000- compound stock solution were prepared with DMSO, and then diluted 200-fold with the complete medium described above to give 5′ compound stock solutions. On the day after cell seeding, 20 μL of the 5× compound stock solution was added to each cell culture well. As a result, the final concentration of the compound in the cell culture well became 1×, and the DMSO content in the well was 0.1%. In addition to the compound-treated wells described above, cell-containing DMSO control wells were also set. A complete medium containing 0.5% DMSO was added at 20 μL/well. After the mixture was well mixed, the culture plate was incubated in the incubator at 37° C. with 5% CO2 for another 3 h. The medium was then removed from the culture wells, and 50 μL of cell lysis buffer (from Advance ERK phospho-T202,Y204 kit) was added to each well. The mixture was well mixed and incubated for 30 min. Then, 16 μL of the mixture was transferred to a white-bottomed, opaque 96-well assay plate, and separately, 16 μL of cell lysis buffer was added to additional wells (serving as blank wells) in the assay plate. After the transfer was completed, 4 μL of p-ERK HTRF antibody mixture (from Advance ERK phospho-T202/Y204 kit) was added to each well of the assay plate, followed by a 4-hour incubation. The HTRF signal values (RLU) were then measured using a microplate reader, and the inhibition rate of the compound against p-ERK levels was calculated as follows: IR (%)=(RLUDMSO−RLUcompound)/(RLUDMSO−RLUblank)×100%, where RLUDMSO is the average HTRF signal value from the DMSO control well samples, RLUblank is the average HTRF signal value from the blank well samples, and RLUcompound is the HTRF signal value from the compound-treated well samples. Using an XLfit software, the IR (%) values were plotted against the logarithm of the compound concentrations, and the dose-response curves were fitted using the four-parameter method to calculate the IC50 values.
In general terms: TR-FRET usually uses a lanthanide donor and a delayed reading to cut background.

A further assay relates to NCI-H441 cells. The assay is described as follows: 3D cell proliferation assay (CellTiter Glo-3D), NCI-H441. It counts as cell-based, human. The settings on record: medium with 2% FBS, read-out: H441 AP IC50. From the text: MIA PaCa-2 cells were purchased from ATCC, Cat. No. CRL-1420; AsPC-1 cells were purchased from ATCC, Cat. No. CRL-1682; NCI-H441 cells were purchased from ATCC, Cat. No. HTB-174: NCI-H1975 cells were purchased from ATCC. Cat. No. CRL-5908; DMEM medium was purchased from Gibco, Cat. No. 11995-065: RPMI-1040 medium was purchased from Gibco. Cat. No. H 18754093; FBS was purchased from Gibco, Cat. No. 10099-141C. penicillin, streptomycin double-antibiotic solution (PS) was purchased from Gibco, Cat. No. 15140-122; Horse serum was purchased from Gibco. Cat. No. 16050130: trypsin (containing EDTA) was purchased from Gibco, Cat. No. 25200-072; DMSO was purchased from VWRAMRESCO, Cat. No. 0231-500ML; 384-well cell culture plates were purchased from Corning, Cat. No. 3830; white-bottomed, opaque 384-well assay plates were purchased from Corning, Cat. No. 3570. CellTiter Glo-3D) kit was purchased from Promega. Cat. No. G9683; cell counter was purchased from CHEMOMETEC, model: NC-200: microplate reader was purchased from PerkinElmer, model: EnVision.
MIA PaCa-2, a human pancreatic cancer cell strain endogenously containing a KRAS^G12C mutation, was cultured in a complete medium containing DMEM+10% FBS+2.5% Horse serum+1% PS. AsPC-1, a human pancreatic cancer cell strain endogenously containing a […] mutation, was cultured in a complete medium containing RPMI-1640+10% FBS+1% PS. NCI-H441 cells, a human lung cancer cell strain endogenously containing a […] mutation, were cultured in a complete medium containing RPMI-1640+10% FBS+1% PS. NCI-H1975, a KRAS wild-type human lung cancer cell strain whose cell proliferation depends on KRAS activity, was cultured in a complete medium containing RPMI-1640+10% FBS+1% PS.
The cells were digested with trypsin (containing EDTA), collected in their respective low-serum complete media containing 2% FBS (for MIA Paca-2 cell culture: DMEM+2% FBS+0.5% Horse serum+1% PS), and counted. After the cell density was adjusted as required, 200 MIA PaCa-2 cells, 800 AsPC-1 cells, 800 NCI-H441 cells, or 400 NCI-H1975 cells per well were seeded into a 384-well cell culture plate, with the volume of the medium in each well being 45 μL. The cell culture plate was incubated in an incubator at 37° C. with 5% CO2, overnight. A series of 3.16-fold gradient dilutions of a 1000× compound stock solution were prepared with DMSO, and then diluted 100-fold with the complete medium containing 2% FBS described above to give 10- compound stock solutions. On the day after cell seeding, 5 μL of the 10- compound stock solution was added to each cell culture well. As a result, the final concentration of the compound in the cell culture well became 1×, and the DMSO content in the well was 0.1%. In addition to the compound-treated wells described above, cell-containing DMSO control wells (with 5 μL of the complete medium containing 1% DMSO added to each well) and cell-free medium control wells (containing 50 μL of the complete medium with 2% FBS) were also set. The culture plate was incubated in an incubator at 37° C. with 5% CO2 for another 5 days, and then 30 μL of CellTiter-Glo working solution was added to each well. The mixture was well mixed, incubated for 30 min, left to stand at room temperature for 30 min, and then transferred to a white-bottomed, opaque 384-well assay plate at 40 μL/well. The chemiluminescence values (RLU) were measured using a microplate reader, and the cell proliferation inhibition rate for each well was calculated: IR (%)=(RLUDMSO—RLUcompound)/(RLUDMSO−RLUblank)×100%, where RLUDMSO is the average RLU signal value from the DMSO control well samples, RLUblank is the average RLU signal value from the medium control well samples, and RLUcompound is the RLU signal value from the compound-treated well samples. […]
(In general: ATP-based viability assays read luminescence as a measure of living cells.)

Where [2] appears, read: Homo sapiens, NCI-H441, 3D cell proliferation (CellTiter Glo-3D).
The mark [3] stands for this setting: 3D cell proliferation (CellTiter Glo-3D).

One may read the IC50 as the concentration that inhibits the measured activity by half.

Like-named read-outs stand apart in the source and are kept apart here.

As for `CCn1c(-c2cc(C#CCN3CCCOCC3)cnc2[C@H](C)OC)c2c3cc(ccc31)-c1csc(n1)C[C@H](NC(=O)[C@H](C(C)C)N(C)[S@](C)(=O)=NC)C(=O)N1CCC[C@H](N1)C(=O)OCC(C)(C)C2` (single isomer, unassigned) [Compound Z912-1], the IC50 was determined as 2.61 nM in assay [1] and 5.13 nM with NCI-H441 cells (setting [2]).

As to `CCn1c(-c2cc(N3CCN(C)CC3)cnc2[C@H](C)OC)c2c3cc(ccc31)-c1csc(n1)C[C@H](N(C)C)C(=O)N1CCC[C@H](N1)C(=O)OCC(C)(C)C2` (atropisomer, axis not shown; (Ra)) [Compound Z458], the IC50 with NCI-H441 cells (setting [2]) is 168 nM.

For the compound `CCn1c(-c2cc(N3CCN(C)CC3)cnc2[C@H](C)OC)c2c3cc(ccc31)-c1csc(n1)C[C@H](Nc1nnc3n1CC(C)CC3)C(=O)N1CCC[C@H](N1)C(=O)OCC(C)(C)C2` (atropisomer, axis not shown; (Ra)) [Compound Z431], the IC50 stood at 44.4 nM in assay [1] and 101 nM in the assay with NCI-H441 cells (setting [2]).

With `[2H]C([2H])([2H])O[C@@H](C)c1ncc(N2CCN3CCOC[C@@H]3C2)cc1-c1c2c3cc(ccc3n1CC)-c1csc(n1)C[C@H](NC(=O)[C@H]1[C@H](C)[C@@H]1C)C(=O)N1CCC[C@H](N1)C(=O)OCC(C)(C)C2` (atropisomer, axis not shown; (Sa)) [Compound Z74, (1r,2R,3S)—N-((6^3S,4S,Z)-1^1-ethyl-(Sa)-1^2-(5-((S)-hexahydropyrazino[2,1-c][1,4]oxazin-8(1H)-yl)-2-((S)-1-(methoxy-d3)ethyl)pyridin-3-yl)-10,10-dimethyl-5,7-dioxo-6^1,6^2,6^3,6^4,6^5,6^6-hexahydro-1^1H-8-oxa-2(4,2)-thiazola-1(5,3)-indola-6(1,3)-pyridazinacycloundecaphane-4-yl)-2,3-dimethylcyclopropane-1-carboxamide], in the assay with NCI-H441 cells (setting [2]), the IC50 came to 965 nM.

Regarding `CCn1c(-c2cc(N3CCN(C)CC3)cnc2[C@H](C)OC)c2c3cc(ccc31)-c1csc(n1)C[C@H](Nc1ccon1)C(=O)N1CCC[C@H](N1)C(=O)OCC(C)(C)C2` (atropisomer, axis not shown) [Compound Z459], in the assay with NCI-H441 cells (setting [2]), the IC50 worked out at 31.4 nM.

With `CCn1c(-c2cc(C#CCN3CCN(C(=O)CO)CC3)cnc2C(C)OC)c2c3cc(ccc31)-c1csc(n1)CC(Nc1nnc3cc(C)ccn13)C(=O)N1CCCC(N1)C(=O)OCC(C)(C)C2` [Compound Z982, (6^3S,4S,Z)-1^1-ethyl-1^2-(5-(3-(4-(2-hydroxyacetyl)piperazin-1-yl)prop-1-yn-1-yl)-2-((S)-1-methoxyethyl)pyridin-3-yl)-10,10-dimethyl-4-((7-methyl-[1,2,4]triazolo[4,3-a]pyridin-3-yl)amino)-6^1,6^2,6^3,6^4,6^5,6^6-hexahydro-1^1H-8-oxa-2(4,2)-thiazola-1(5,3)-indola-6(1,3)-pyridazinacycloundecaphane-5,7-dione], in the assay with NCI-H441 cells (setting [3]), the IC50 amounted to 2.57 nM.

`CCn1c(-c2cc(C#CCN3CCCOCC3)cnc2[C@H](C)OC)c2c3cc(ccc31)-c1csc(n1)C[C@H](Nc1nnc3cc(I)ccn13)C(=O)N1CCC[C@H](N1)C(=O)OCC(C)(C)C2` (atropisomer, axis not shown; (Ra)) [Compound Z970, (6^3S,4S,Z)-1^2-(Ra)-(5-(3-(1,4-oxazepan-4-yl)prop-1-yn-1-yl)-2-((S)-1-methoxyethyl)pyridin-3-yl)-1^1-ethyl-4-((7-iodo-[1,2,4]triazolo[4,3-a]pyridin-3-yl)amino)-10,10-dimethyl-6^1,6^2,6^3,6^4,6^5,6^6-hexahydro-1^1H-8-oxa-2(4,2)-thiazola-1(5,3)-indola-6(1,3)-pyridazinacycloundecaphane-5,7-dione]: the IC50 in the assay with NCI-H441 cells (setting [2]) was 7.2 nM.

On to `CNCCn1c(-c2cc(C#CCN3CCS(=O)(=O)CC3)cnc2[C@H](C)OC)c2c3cc(ccc31)-c1csc(n1)C[C@H](NC(=O)[C@H]1[C@H](C)[C@@H]1C)C(=O)N1CCC[C@H](N1)C(=O)OCC(C)(C)C2` (atropisomer, axis not shown; (Ra)) [Compound Z954, (1r,2R,3S)—N-((6^3S,4S,Z)-1^2-(5-(3-(1,1-dioxidodimorpholino)prop-1-yn-1-yl)-(Ra)-2-((S)-1-methoxyethyl)pyridin-3-yl)-10,10-dimethyl-1^1-(2-(methylamino)ethyl)-5,7-dioxo-6^1,6^2,6^3,6^4,6^5,6^6-hexahydro-1^1H-8-oxa-2-(4,2)-thiazola-1(5,3)-indola-6(1,3)-pyridazinacycloundecaphane-4-yl)-2,3-dimethylcyclopropane-1-carboxamide], for which the IC50 with NCI-H441 cells (setting [3]) is 2.33 nM.

Source of the values: patent US20260234165A1, “MACROCYCLIC COMPOUNDS, PREPARATION METHOD THEREFOR, AND USE THEREOF” (GENFLEET THERAPEUTICS (SHANGHAI) INC., priority 2004, published 2026).
